Where two headings read alike, the source gives them in different places.
Tests used:
MCR-4 = molecular target: T1, MCR-4 (Homo sapiens, UniProt P32245); experiment: Melanocortin receptor binding assay, competition with 125I-HP 467, HEK 293 cells expressing hMCR-4; conditions: for IC50: read-out: MC-4 IC50
T1 construct: expressed in transfected cells; host or cells: HEK 293
Method: All cell culture media and reagents were obtained from GibcoBRL (Gaithersburg Md.), except for COSMIC CALF SERUM (HyClone; Logan Utah).
Cells were suspended in PBS, 10% COSMIC CALF SERUM and 1 mM CaCl2. Cell suspensions were prepared at a density of 2×10^4 cells/ml for HEK 293 cells expressing hMCR-3, hMCR-4 or hMCR-5, and 1×10^5 cells/ml for HEK 293 cells expressing hMCR-1. Suspensions were placed in a water bath and allowed to warm to 37° C. for 1 hr.
Binding assays were performed in a total volume of 250 μl for HEK 293 cells. […] To each tube was added 4×10^3 HEK 293 cells expressing hMCR-3, hMCR-4 or hMCR-5, or 2×10^4 cells expressing hMCR-1. Assays were incubated for 2.5 hr at 37° C.
GF/B filter plates were prepared by soaking for at least one hour in 5 mg/ml BSA and 10 mM CaCl2. Assays were filtered using a Brandel 96-well cell harvester (Brandel Inc.; Gaithersburg, Md.). The filters were washed four times with cold 50 mM Tris, pH 7.4, the filter plates were dehydrated for 2 hr and 35 μl of MICROSCINT was added to each well. Filter plates were counted using a Packard Topcount (Packard Instrument Co.) and data analyzed using GraphPad PRISM v2.0 (GraphPad Software Inc.; San Diego Calif.) and Microsoft EXCEL v5.0a (Microsoft Corp.; Redmond Wash.).
To assay isoquinoline compounds, binding assays were performed in duplicate in a 96 well format. […] A 0.2 ml aliquot of suspended cells was added to each well to give the cell numbers indicate above, and the cells were incubated at 37° C. for 2.5 hr. Cells were harvested on GF/B filter plates as described above and counted.

MCR-1 = molecular target: T2, MCR-1 (Homo sapiens, UniProt Q01726); experiment: Melanocortin receptor binding assay, competition with 125I-HP 467, HEK 293 cells expressing hMCR-1; conditions: for IC50: read-out: MC-1 IC50; for % Disp. MC-1 10 μM: displacement of 125I-HP 467 at 10 μM isoquinoline compound; for % Disp. of 125I-HP 467 (first of duplicate) / % Disp. of 125I-HP 467 (second of duplicate): 10 μM isoquinoline compound; for % Disp. of 125I-HP 467 (first of duplicate): HEK 293 cells expressing MCR-1, duplicate 1; for % Disp. of 125I-HP 467 (second of duplicate): HEK 293 cells expressing MCR-1, duplicate 2
T2 construct: expressed in transfected cells; host or cells: HEK 293
T2 sequence (Q01726 whole entry): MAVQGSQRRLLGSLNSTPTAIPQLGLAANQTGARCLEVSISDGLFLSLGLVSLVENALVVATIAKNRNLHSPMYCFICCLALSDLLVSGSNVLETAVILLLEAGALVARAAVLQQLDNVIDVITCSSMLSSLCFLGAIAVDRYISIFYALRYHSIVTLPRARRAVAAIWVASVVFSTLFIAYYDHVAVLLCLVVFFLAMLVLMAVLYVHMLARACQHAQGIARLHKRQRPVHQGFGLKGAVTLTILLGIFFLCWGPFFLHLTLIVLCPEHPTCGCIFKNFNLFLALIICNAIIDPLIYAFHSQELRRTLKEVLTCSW
Summary of the method: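 Test compounds compete on intact HEK 293 cells carrying hMCR-1 (2×10^4 per tube) or hMCR-4 (4×10^3 per tube), suspended in PBS, 10% calf serum, 1 mM CaCl2.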

[1] = inhibition of binding of 125I-HP 467, HEK 293 cells expressing MCR-4, TRG 2414 library
[2] = competition with 125I-HP 467, HEK 293 cells expressing MCR-1
[3] = inhibition of binding of 125I-HP 467, HEK 293 cells expressing MCR-1
[4] = inhibition of binding of 125I-HP 467, HEK 293 cells expressing MCR-4
[5] = TRG 2408 and TRG 2409 libraries, inhibition of 125I-HP 467 binding

T1 sequence (P32245 whole entry): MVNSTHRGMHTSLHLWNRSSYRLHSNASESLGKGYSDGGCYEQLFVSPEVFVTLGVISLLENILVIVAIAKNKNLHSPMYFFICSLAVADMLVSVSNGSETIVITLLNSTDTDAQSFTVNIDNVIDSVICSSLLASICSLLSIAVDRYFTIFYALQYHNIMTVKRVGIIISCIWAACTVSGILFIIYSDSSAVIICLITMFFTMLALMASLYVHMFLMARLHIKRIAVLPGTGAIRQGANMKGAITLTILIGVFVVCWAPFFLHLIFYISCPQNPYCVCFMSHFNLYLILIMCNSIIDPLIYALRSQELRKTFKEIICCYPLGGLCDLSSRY

CCOc1ccccc1CNCC1c2ccccc2CN(CCCCC(CN)NCc2ccccc2)C1c1ccc(Cl)cc1Cl (stereo not shown) [TRG 2414-7]
IC50 (MCR-4; [1]): 4.56 µM

CNC(CN)CCCCN1Cc2ccccc2C(CNC2CCCCC2)C1c1ccc(NCc2ccccc2)cc1 (stereo not shown) [TRG 2409-13]
IC50 (MCR-1; [2]): 1.15 µM
IC50 (MCR-4; competition with 125I-HP 467, HEK 293 cells expressing MCR-4): 17.4 µM

CCCOc1ccc(C2C(CO)c3ccccc3CN2CCCC(CN)NCCC2CCCCC2)cc1 (mixture of isomers) [TRG 2415-4]
IC50 (MCR-1; [3]): 2.57 µM
IC50 (MCR-4; [4]): 2.55 µM

CCNc1ccc(C2C(CN)c3ccccc3CN2CCCC(CN)NCc2ccc(OC)cc2)cc1 (stereo not shown) [TRG 2411-184]
IC50 (MCR-1; [3]): 0.09 µM
IC50 (MCR-4; [4]): 1.61 µM

CNC(CN)CCN1Cc2ccccc2C(CNC2CCCCC2)C1c1ccc(Cl)cc1Cl (stereo not shown) [TRG 2408-100]
IC50 (MCR-1; [5]): 6.98 µM
IC50 (MCR-4; [5]): 6.1 µM

CC(C)Cc1ccc(C(C)CNC(CN)CCCCN2Cc3ccccc3C(CNCc3ccccc3C(F)(F)F)C2c2ccc(Cl)cc2Cl)cc1 (stereo not shown) [TRG 2414-4]
MC-4 IC50 (MCR-4; [1]): no fit

CCOc1ccccc1CNCC1c2ccccc2CN(CCCCC(N)CN)C1c1ccc(Cl)cc1Cl (stereo not shown) [TRG 2414-5]
IC50 (MCR-4; [1]): 0.48 µM

CCOc1ccccc1CNCC1c2ccccc2CN(CCCCC(CN)NCCc2ccccc2)C1c1ccc(Cl)cc1Cl (stereo not shown) [TRG 2414-6]
IC50 (MCR-4; [1]): 5.54 µM

NCC(N)CCCCN1Cc2ccccc2C(CNCc2ccccc2C(F)(F)F)C1c1ccc(Cl)cc1Cl (stereo not shown) [TRG 2414-1]
IC50 (MCR-4; [1]): 7.59 µM

NCC(CCCCN1Cc2ccccc2C(CNCc2ccccc2C(F)(F)F)C1c1ccc(Cl)cc1Cl)NCc1ccccc1 (mixture of isomers) [TRG 2414-3]
IC50 (MCR-4; [1]): 65.5 µM

NCC(CCCCN1Cc2ccccc2C(CNCc2ccccc2C(F)(F)F)C1c1ccc(Cl)cc1Cl)NCCc1ccccc1 (stereo not shown) [TRG 2414-2]
IC50 (MCR-4; [1]): 29.3 µM

NCCN1Cc2ccccc2C(CNC2CCCCC2)C1c1ccc(Br)cc1 (stereo not shown) [TRG 2405-62]
% Disp. MC-1 10 μM (MCR-1; first of duplicate): 32.1%
% Disp. MC-1 10 μM (MCR-1; second of duplicate): 54.3%

CNC(CN)CN1Cc2ccccc2C(CNC2CCCCC2)C1c1cccc(OC)c1 (stereo not shown) [TRG 2405-135]
% Disp. MC-1 10 μM (MCR-1; first of duplicate): 43.9%
% Disp. MC-1 10 μM (MCR-1; second of duplicate): 39.7%

CNC(CN)CCCCN1Cc2ccccc2C(CNC2CCCCC2)C1c1cccnc1 (stereo not shown) [TRG 2405-231]
% Disp. of 125I-HP 467 (first of duplicate) (MCR-1): 25%
% Disp. of 125I-HP 467 (second of duplicate) (MCR-1): 18.9%

NCCN1Cc2ccccc2C(CNC2CCCCC2)C1c1cccc(O)c1 (stereo not shown) [TRG 2405-43]
% Disp. MC-1 10 μM (MCR-1; first of duplicate): 32.3%
% Disp. MC-1 10 μM (MCR-1; second of duplicate): 23.1%

CNC(CN)CCCCN1Cc2ccccc2C(CNC2CCCCC2)C1c1cc(C(F)(F)F)cc(C(F)(F)F)c1 (stereo not shown) [TRG 2405-208]
% Disp. of 125I-HP 467 (first of duplicate) (MCR-1): 79.5%
% Disp. of 125I-HP 467 (second of duplicate) (MCR-1): 67.5%

COc1ccc(C2C(CNC3CCCCC3)c3ccccc3CN2CCN)cc1F (stereo not shown) [TRG 2405-40]
% Disp. MC-1 10 μM (MCR-1; first of duplicate): 22.4%
% Disp. MC-1 10 μM (MCR-1; second of duplicate): 35.5%

CCOc1ccccc1CNCC1c2ccccc2CN(CCCCC(CN)NCC(C)c2ccc(CC(C)C)cc2)C1c1ccc(Cl)cc1Cl (stereo not shown) [TRG 2414-8]
IC50 (MCR-4; [1]): 13.8 µM

CCCCNc1ccc(C2C(CNC3CCCCC3)c3ccccc3CN2CCCCC(CN)NCCc2ccc(OC)cc2)cc1 (stereo not shown) [TRG 2411-92]
IC50 (MCR-1; [2]): 0.3 µM

CNC(CN)CCCCN1Cc2ccccc2C(CNC2CCCCC2)C1c1ccoc1 (stereo not shown) [TRG 2405-222]
% Disp. of 125I-HP 467 (first of duplicate) (MCR-1): 34.3%
% Disp. of 125I-HP 467 (second of duplicate) (MCR-1): 39.3%

CCNc1ccc(C2C(CNC3CCCCC3)c3ccccc3CN2CCCC(CN)NCCc2ccc3ccccc3c2)cc1 (stereo not shown) [TRG 2411-172]
IC50 (MCR-1; [3]): 0.22 µM

CCNc1ccc(C2C(CNCCc3ccccc3)c3ccccc3CN2CCCC(CN)NCCN)cc1 (stereo not shown) [TRG 2411-163]
IC50 (MCR-1; [3]): 0.22 µM

CCNc1ccc(C2C(CN)c3ccccc3CN2CCCCC(CN)NCC)cc1 (stereo not shown) [TRG 2411-60]
effectiveness as MC receptor ligand (MCR-1; binding to MC receptors, Table 1): particularly effective MC receptor ligands
IC50 (MCR-1; [2]): 0.05 µM

CNC(CN)CN1Cc2ccccc2C(CNC2CCCCC2)C1c1cccc(CN)c1 (stereo not shown) [TRG 2405-129]
% Disp. MC-1 10 μM (MCR-1; first of duplicate): 39.8%
% Disp. MC-1 10 μM (MCR-1; second of duplicate): 39.6%

CNC(CNC(CN)CCCCN1Cc2ccccc2C(CNCCc2ccccc2)C1c1ccc(-c2ccccc2)cc1)Cc1ccccc1 (stereo not shown) [TRG 2411-8]
IC50 (MCR-1; [2]): 0.76 µM

NCCN1Cc2ccccc2C(CNC2CCCCC2)C1c1ccccc1 (mixture of isomers) [TRG 2405-1]
% Disp. MC-1 10 μM (MCR-1; first of duplicate): 85.3%
% Disp. MC-1 10 μM (MCR-1; second of duplicate): 24.1%

COc1ccc(C2C(CNC3CCCCC3)c3ccccc3CN2CCN)c2ccccc12 (stereo not shown) [TRG 2405-68]
% Disp. MC-1 10 μM (MCR-1; first of duplicate): 55.3%
% Disp. MC-1 10 μM (MCR-1; second of duplicate): 52.3%

NCCN1Cc2ccccc2C(CNC2CCCCC2)C1c1cccc([N+](=O)[O-])c1 (stereo not shown) [TRG 2405-49]
% Disp. MC-1 10 μM (MCR-1; first of duplicate): 37.2%
% Disp. MC-1 10 μM (MCR-1; second of duplicate): 42.4%

CNC(CN)CCCCN1Cc2ccccc2C(CNC2CCCCC2)C1c1ncc[nH]1 (stereo not shown) [TRG 2405-198]
% Disp. of 125I-HP 467 (first of duplicate) (MCR-1): 65.4%
% Disp. of 125I-HP 467 (second of duplicate) (MCR-1): 26.4%

CCNc1ccc(C2C(CN)c3ccccc3CN2CCCC(CN)NCCN)cc1 (stereo not shown) [TRG 2411-187]
IC50 (MCR-1; [3]): 0.06 µM

NCCN1Cc2ccccc2C(CNC2CCCCC2)C1c1ccc2cccc(O)c2n1 (stereo not shown) [TRG 2405-82]
% Disp. MC-1 10 μM (MCR-1; first of duplicate): 18.5%
% Disp. MC-1 10 μM (MCR-1; second of duplicate): 29.6%

CCNc1ccc(C2C(CNCCc3ccccc3)c3ccccc3CN2CCCCC(N)CN)cc1 (stereo not shown) [TRG 2411-36]
IC50 (MCR-1; [2]): 0.13 µM

CNC(CN)CN1Cc2ccccc2C(CNC2CCCCC2)C1c1ccoc1 (stereo not shown) [TRG 2405-132]
% Disp. MC-1 10 μM (MCR-1; first of duplicate): 51.6%
% Disp. MC-1 10 μM (MCR-1; second of duplicate): 51.7%

CNC(CN)CCCCN1Cc2ccccc2C(CNC2CCCCC2)C1c1ccc([N+](=O)[O-])cc1 (stereo not shown) [TRG 2405-251]
% Disp. of 125I-HP 467 (first of duplicate) (MCR-1): 49.4%
% Disp. of 125I-HP 467 (second of duplicate) (MCR-1): 46.9%

COc1ccc(Oc2cccc(C3C(CNC4CCCCC4)c4ccccc4CN3CCN)c2)cc1 (stereo not shown) [TRG 2405-34]
% Disp. MC-1 10 μM (MCR-1; first of duplicate): 55.6%
% Disp. MC-1 10 μM (MCR-1; second of duplicate): 56.1%

NCC1c2ccccc2CN(CCCCC(CN)N2CCCC2)C1c1ccc(-c2ccccc2)cc1 (stereo not shown) [TRG 2411-31]
IC50 (MCR-1; [2]): 0.97 µM

CCNc1ccc(C2C(CNC3CCCCC3)c3ccccc3CN2CCCC(CN)N2CCCC2)cc1 (stereo not shown) [TRG 2411-166]
IC50 (MCR-1; [3]): 0.04 µM

CCNc1ccc(C2C(CN)c3ccccc3CN2CCCC(CN)NCc2ccccc2)cc1 (stereo not shown) [TRG 2411-182]
IC50 (MCR-1; [3]): 0.2 µM

CNC(CN)CCCCN1Cc2ccccc2C(CN)C1c1ccc([N+](=O)[O-])cc1 (stereo not shown) [TRG 2413-6]
IC50 (MCR-1; [3]): 6.51 µM

CNC(CN)CCCCN1Cc2ccccc2C(CNC2CCCCC2)C1c1ccc(SC)cc1 (stereo not shown) [TRG 2405-237]
% Disp. of 125I-HP 467 (first of duplicate) (MCR-1): 62.2%
% Disp. of 125I-HP 467 (second of duplicate) (MCR-1): 47.8%

CCCCCc1ccc(C2C(CNCCc3ccccc3)c3ccccc3CN2CCCCC(CN)NC)cc1 (stereo not shown) [TRG 2412-13]
IC50 (MCR-1; [3]): 0.45 µM

CNC(CN)CN1Cc2ccccc2C(CNC2CCCCC2)C1c1ccc(C)o1 (stereo not shown) [TRG 2405-169]
% Disp. MC-1 10 μM (MCR-1; first of duplicate): 62.2%
% Disp. MC-1 10 μM (MCR-1; second of duplicate): 51.5%

CCCCNc1ccc(C2C(CNCCc3ccccc3)c3ccccc3CN2CCCC(CN)NC)cc1 (stereo not shown) [TRG 2411-189]
IC50 (MCR-1; [3]): 0.12 µM

NCCNC(CN)CCCN1Cc2ccccc2C(CN)C1c1ccc(-c2ccccc2)cc1 (stereo not shown) [TRG 2413-7]
IC50 (MCR-1; [3]): 1.54 µM

Reference: US6608082B1, “Treatment of erectile dysfunction using isoquinoline compound melanocortin receptor ligands” (Lion Bioscience AG, priority 1998, dated 2003)
